The numbers were not newly measured in patent US6559183B1, “Nano-emulsion of 5-aminolevulinic acid” (ASAT AG Applied Science & Technology, priority 1998, dated 2003), which cites them from elsewhere.

The conditions of the data set: high concentrations required for clinical application, neutral to basic pH range, 25 h.

As to `NCC(=O)CCC(=O)O` [aminolevulinic acid, 5-aminolevulinic acid], the “stability in aqueous solutions” value is reported as “unstable”.
